Data reported in article PMC10683025, “Discovery of a Hydroxylamine-Based Brain-Penetrant EGFR Inhibitor for Metastatic Non-Small-Cell Lung Cancer” (Journal of Medicinal Chemistry, 2023).

Assays:
WNK4 = biological target: T1, WNK4 (Homo sapiens, UniProt Q96J92); assay: KINOMEScan; assay type: binding; details: WNK4, 1 µM; read-out: Percent Control
T1 construct: purchased Eurofins DiscoverX (KINOMEScan service)
Description: (§3) Percent control was mapped onto the kinome tree using TREEspot.

[1] = biological target: T2, ABL1(Q252H)-nonphosphorylated (Homo sapiens, UniProt P00519, Q252H); assay: KINOMEScan; assay type: binding; details: read-out: Percent Control
T2 construct: purchased Eurofins DiscoverX
Description: as §3

[2] = tested on: ZR-75-30 (HER2-positive breast cancer); assay: CellTiter-Glo cell viability assay; assay type: cell-based, human; details: Homo sapiens, ZR-75-30; 72 h, unadjusted for FBS
Description: (§1) The A431, HCC827, SK-BR-3, ZR-75–30, AU565, and Caco-2 cell lines were obtained from ATCC. The NCI-H1975 cell line was obtained from SIBS. The NCI-H3255 cell line was obtained from CoBioer. Engineered Ba/F3 cell lines were obtained from Crown Bioscience. MCKII-MDR1 cells were obtained from The Netherlands Cancer Institute. HEK293 cells were obtained from Invitrogen. A431 cells were cultured in DMEM (Life Technologies) with 10% FBS. HCC827, NCI-H1975, and AU565 cells were cultured in RPMI1640 (Invitrogen) with 10% FBS. NCI-H3255 cells were cultured in BEGM (Lonza) with 10% FBS. Ba/F3 EGFR-del E746_A750/C797S and Ba/F3 EGFR-L858R/C797S cells were cultured in RPMI (Invitrogen) with 10% FBS. SK-BR-3 cells were cultured in McCoy’s 5a (Invitrogen) with 10% FBS. ZR-75-30 cells were cultured in RPMI1640 (Invitrogen) with 20% FBS. Caco-2 and MCKII-MDR1 culture information is given in the Permeability Studies section. HEK293 cells were cultured in DMEM (Gibco) with 10% FBS, 0.1 mM NEAA, 25 mM HEPES, 100 U/mL penicillin-streptomycin, μg/mL blasticidin, and 400 μg/mL Geneticin. All cells were cultured in a humidified incubator with 5% CO2 at 37 °C.
(§2) Viability assays using A431, HCC827, NCI-H1975, NCI-H3255, Ba/F3 EGFR-del E746_A750/C797S, Ba/F3 EGFR-L858R/C797S, AU565, SK-BR-3, and ZR-75-30 cells were performed at Crown BioScience. Cells were plated into 96-well plates at 1500–7000 cells per well and dosed in triplicate (n = 3) in a nine-point, 4-fold dilution series with compounds (0.15 nM to 10 μM) in DMSO and incubated for 72 h. After 72 h, cell viability was assayed by CellTiter-Glo Luminescent Viability Assay (Promega). Dose–response curves were generated and used to calculate the IC50 values which were calculated on GraphPad Prism from the nonlinear regression equation fitted with a sigmoidal dose response and are presented as mean ± SEM.

[3] = tested on: SK-BR-3 (HER2-positive breast cancer); assay: CellTiter-Glo cell viability assay; assay type: cell-based, human; details: Homo sapiens, SK-BR-3; 72 h, unadjusted for FBS
Description: as §1, §2

[4] = tested on: AU565 (HER2-positive breast cancer); assay: CellTiter-Glo cell viability assay; assay type: cell-based, human; details: Homo sapiens, AU565; 72 h, unadjusted for FBS
Description: as §1, §2

[5] = tested on: A431 cell line (overexpressed EGFRwt); assay: CellTiter-Glo cell viability assay; assay type: cell-based, human; details: Homo sapiens, A-431; 72 h, unadjusted for FBS
Description: as §1, §2

[6] = tested on: NCI-H1975 (EGFR mutation = L858R/T790M); assay: CellTiter-Glo cell viability assay; assay type: cell-based, human; details: Homo sapiens, NCI-H1975; 72 h, unadjusted for FBS
Description: as §1, §2

CYP3A4 = biological target: T3, CYP3A4 (Homo sapiens, UniProt P08684); assay: CYP450 inhibition in human liver microsomes; assay type: in vitro ADME; details: midazolam
T3 construct: incubated with pooled human liver microsomes (0.5 mg/mL) (BD Gentest); tissue BD Gentest; host or cells: pooled human liver microsomes
Description: The activities tested were CYP1A2-mediated phenacetin O-demethylation, CYP2C19-mediated (S)-mephenyotin 4′-hydroxylation, CYP2C9-mediated diclofenac 4′-hydroxylation, CYP2D6-mediated dextromethorphan O-demethylation, and CYP3A4-mediated midazolam 1′-hydroxylation. […] The reactions were initiated by adding NADPH (1 mM final concentration) after a 5 min preincubation, and the assay was run in duplicate (n = 2). Samples were analyzed by ultra-performance liquid chromatography tandem mass spectrometry (UPLC-MS/MS).

panel of 468 kinases = assay: KINOMEScan selectivity scores
Description: as §3

[7] = tested on: luciferase-tagged HCC827 cells implanted into the brains; assay: Intracranial PDX model; assay type: in vivo, BALB/c nude mice; details: 10 mg/kg PO b.i.d.
Description: Animal experiments were performed at Pharmaron, Inc. and animal use was approved by Pharmaron’s Institutional Animal Care and Use Committee (IACUC) in Pharmaron (Pharmaron IACUC, Protocol #PK-M-07182022, #PK-R-06012022, and #ON-CELL-XEN-06012022) following the guidance of AAALAC. Six- to eight-week-old male Sprague-Dawley rats (approximately 200–300 g) obtained from Si Bei Fu Laboratory Animal Technology Co., six- to eight-week-old male CD1 mice (approximately 20–30 g) obtained from Si Bei Fu Laboratory Animal Technology Co., and six- to eight-week-old female BALB/c nude mice (approximately 20–30 g) obtained from Si Bei Fu Laboratory Animal Technology Co., were used in the pharmacokinetic studies. Six- to eight-week-old female BALB/c nude mice (approximately 18–22 g) obtained from Beijing Anikeeper Biotech Co., Ltd. were used in the intracranial PDX study. Animals were housed at 20–25 °C with humidity ranging from 40 to 70% relative humidity, were exposed to 12 h light and dark cycles, and were supplied with food and water ab libitum.
HCC827 cells stably expressing luciferase (HCC827-luc) were injected intracranially. Briefly, 3 × 10^5 HCC827-luc tumor cells suspended in 2 μL of RPMI1640 medium were injected into the right forebrain of anesthetized mice (anesthetic: intramuscular injection of ZoletlTM 50 (Virbac S.A)). Mice were imaged biweekly using IVIS Lumina III (PerkinElmer). Images were acquired 10 min post intraperitoneal (IP) injection with 15 mg/mL (at 5 μL/g body weight) of D-luciferin in anesthetized mice (anesthetic: 1–2% isoflurane inhalation). On day 20 postcellular inoculation, mice were randomized into 2 treatment groups (n = 10 mice per group): (1) 1% methylcellulose as vehicle control and (2) 9 (10 mg/kg) (formulation: 1% methylcellulose), PO, b.i.d. (twice daily) dosing (12 h intervals) × 7 days for 21 days. Body weights of all mice were measured biweekly throughout the study and BW change, expressed in % was calculated using the following formula: [drawing 5] where BWDay X is the BW on a given day and BWDay 0 is BW on day 0 (initiation of treatment).

ADCK3 = biological target: T4, ADCK3 (Homo sapiens, UniProt Q8NI60); assay: KINOMEScan; assay type: binding; details: ADCK3, 1 µM; read-out: Percent Control
T4 construct: purchased Eurofins DiscoverX (KINOMEscan)
Description: as §3

[8] = biological target: T5, ABL1(H396P)-nonphosphorylated (Homo sapiens, UniProt P00519, H396P); assay: KINOMEScan; assay type: binding; details: read-out: Percent Control
T5 construct: purchased Eurofins DiscoverX
Description: as §3

T4 sequence (Q8NI60 163-647): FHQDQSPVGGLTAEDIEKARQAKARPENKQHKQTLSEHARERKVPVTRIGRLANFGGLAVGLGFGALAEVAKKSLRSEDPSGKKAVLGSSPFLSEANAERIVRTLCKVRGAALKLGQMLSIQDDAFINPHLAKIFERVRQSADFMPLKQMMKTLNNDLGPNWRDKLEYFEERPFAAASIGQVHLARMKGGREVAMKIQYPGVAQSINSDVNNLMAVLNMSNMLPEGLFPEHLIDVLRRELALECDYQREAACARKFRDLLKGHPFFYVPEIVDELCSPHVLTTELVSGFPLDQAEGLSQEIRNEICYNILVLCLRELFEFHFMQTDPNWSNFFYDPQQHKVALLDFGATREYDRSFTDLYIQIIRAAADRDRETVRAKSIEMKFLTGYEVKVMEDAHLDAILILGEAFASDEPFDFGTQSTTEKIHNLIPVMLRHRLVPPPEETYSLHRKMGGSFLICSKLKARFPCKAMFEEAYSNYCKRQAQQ
T3 sequence (P08684 whole entry): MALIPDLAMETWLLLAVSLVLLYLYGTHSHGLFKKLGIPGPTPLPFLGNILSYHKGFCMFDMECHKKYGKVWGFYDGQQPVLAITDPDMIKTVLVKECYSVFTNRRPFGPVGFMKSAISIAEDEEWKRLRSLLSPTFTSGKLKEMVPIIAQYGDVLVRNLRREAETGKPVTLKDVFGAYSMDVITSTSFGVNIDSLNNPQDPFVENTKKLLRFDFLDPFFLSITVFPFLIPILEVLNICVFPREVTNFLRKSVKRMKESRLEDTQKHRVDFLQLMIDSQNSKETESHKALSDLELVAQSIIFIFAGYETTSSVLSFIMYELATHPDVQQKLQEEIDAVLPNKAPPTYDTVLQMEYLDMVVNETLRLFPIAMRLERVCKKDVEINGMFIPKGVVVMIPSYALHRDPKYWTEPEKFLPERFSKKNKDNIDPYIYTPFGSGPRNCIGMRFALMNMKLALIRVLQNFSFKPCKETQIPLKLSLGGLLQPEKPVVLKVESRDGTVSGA
T1 sequence (Q96J92 whole entry): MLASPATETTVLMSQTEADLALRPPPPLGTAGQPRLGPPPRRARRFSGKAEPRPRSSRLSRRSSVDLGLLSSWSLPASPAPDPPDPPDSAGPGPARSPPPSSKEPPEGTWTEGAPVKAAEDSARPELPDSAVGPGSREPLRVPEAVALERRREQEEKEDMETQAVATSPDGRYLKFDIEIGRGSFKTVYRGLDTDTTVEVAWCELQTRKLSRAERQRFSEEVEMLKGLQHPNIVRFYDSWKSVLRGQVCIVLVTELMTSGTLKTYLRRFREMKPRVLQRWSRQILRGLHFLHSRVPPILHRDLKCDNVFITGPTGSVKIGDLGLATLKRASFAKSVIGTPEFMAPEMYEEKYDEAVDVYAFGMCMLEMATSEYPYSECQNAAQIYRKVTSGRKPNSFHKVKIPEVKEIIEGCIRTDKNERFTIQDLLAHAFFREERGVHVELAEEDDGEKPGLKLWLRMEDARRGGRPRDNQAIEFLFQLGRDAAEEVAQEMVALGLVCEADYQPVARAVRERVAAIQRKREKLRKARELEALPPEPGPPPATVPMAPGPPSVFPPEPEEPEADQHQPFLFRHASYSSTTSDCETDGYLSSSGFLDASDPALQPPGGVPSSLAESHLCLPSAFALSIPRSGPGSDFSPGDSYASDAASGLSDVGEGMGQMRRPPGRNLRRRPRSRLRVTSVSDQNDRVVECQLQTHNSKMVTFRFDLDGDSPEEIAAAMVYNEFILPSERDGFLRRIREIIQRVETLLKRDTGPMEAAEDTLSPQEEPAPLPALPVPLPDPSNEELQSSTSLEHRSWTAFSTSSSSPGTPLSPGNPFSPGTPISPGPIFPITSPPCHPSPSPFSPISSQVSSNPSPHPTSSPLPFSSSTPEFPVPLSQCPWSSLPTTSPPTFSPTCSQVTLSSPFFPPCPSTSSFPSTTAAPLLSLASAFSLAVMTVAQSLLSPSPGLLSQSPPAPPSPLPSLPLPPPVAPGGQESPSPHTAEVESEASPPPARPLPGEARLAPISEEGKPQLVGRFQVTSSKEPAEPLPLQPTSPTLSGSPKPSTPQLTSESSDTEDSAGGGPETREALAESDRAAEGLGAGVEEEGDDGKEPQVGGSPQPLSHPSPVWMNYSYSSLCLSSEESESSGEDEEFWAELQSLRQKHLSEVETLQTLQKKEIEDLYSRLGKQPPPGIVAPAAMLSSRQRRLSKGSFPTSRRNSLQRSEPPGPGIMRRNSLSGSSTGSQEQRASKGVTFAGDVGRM

COc1cc2ncnc(Nc3cccc(Cl)c3F)c2cc1OCCON1CCN(C)CC1 [Compound 9, N-(3-Chloro-2-fluorophenyl)-7-methoxy-6-(2-((4-methylpiperazin-1-yl)oxy)ethoxy)quinazolin-4-amine]
remaining binding at 1 µM (WNK4): 95%
remaining binding at 1 µM [1]: 6.7%
IC50 [2]: 1630 nM
IC50 [3]: 1510 nM
IC50 [4]: 986 ± 138 nM
IC50 [5]: 83 nM
IC50 [6]: > 10000 nM
IC50 (CYP3A4): > 30000 nM
Number of Hits S(1) (panel of 468 kinases; percent control < 1, of 403): 2
Number of Hits S(10) (panel of 468 kinases; percent control < 10, of 403): 6
Number of Hits S(35) (panel of 468 kinases; percent control < 35, of 403): 12
mean body weight loss ([7]; 21-day treatment window): ≤ 10%
adverse clinical events ([7]; 21 days): no adverse clinical events were observed
intracranial tumor response relative to vehicle control (bioluminescence) ([7]; 21 days, P = 0.0059): profound tumor regression
remaining binding at 1 µM (ADCK3): 90%
remaining binding at 1 µM [8]: 1%
